Results as given in patent US20230270764A1, “COMPOSITION COMPRISING CANNABINOIDS, TERPENES, AND FLAVONOIDS FOR TREATING DEPRESSION” (priority 2020, published 2023).

Tests used:
Format in all cases: in vivo
LPS-injected mice [1] = experiment: Body weight change and food consumption in the LPS-induced model of depression
Excerpt: (§1) Animals were housed 2-3/cage, kept in an air-conditioned room (23+°C) and given ad libitum access to food and water. The mice were kept in a reversed light/dark cycle, with lights off from 7 a.m. to 7 p.m. All experiments were approved by the Hebrew University of Jerusalem Ethics Committee on Animal Care and Use. In preparation for the Sucrose Preference Test, mice were habituated 2-3 times to sucrose drinking, by exposing them overnight to two graduated tubes, one containing water and the other containing sucrose solution (1%, w/v). Water and sucrose consumption were measured, and sucrose preference was computed by dividing the amount of sucrose consumed by drinking (ml sucrose) by the total drinking volume (ml of sucrose + water). One day later, the weight of the mice and the food in their cages was weighed for later analysis of food consumption and body weight changes. Groups of mice were injected intraperitoneally (i.p.) with either vehicle (cremophor, ethanol and PBS, 1:1:18 (v/v/v)) or a cannabinoid-based formulation (by itself or with another cannabinoid, or a terpene or a flavonoid). One hour later, each of these groups was injected with LPS (330 µg/kg). All injections were administered at a dose of 10 ml/kg. Four hours following the LPS injection, mice were tested in the Open-Field Test. In this test, the measured locomotor activity reflects not only motor capacity, but particularly the innate motivation for spatial exploration (which increases the distance travelled) and the anxiety level (which reduces the distance travelled, in general, and particularly the distance and time spent in the center of the open field). Each subject was placed near one of the walls of a white 50 X 50 cm^2 arena with 40 cm high walls. The distance travelled (cm), the velocity of the movement (cm/second), the time spent (seconds), distance travelled (cm) in the center area of the arena, as well as the number of entries from the perimeter area into the center of the arena were automatically measured over a 4-minute period, using EthoVision XT video tracking system and software (Noldus, The Netherlands). Twenty-four hours after the LPS injection, mice were tested in the Social Exploration Test. In this test, the subject was placed in an observation cage containing a small metal wire mesh cage with a conspecific mouse inside it. Social exploration, defined as the time of near contact between the nose of the subject and the juvenile in the small cage was recorded for 4 min, using computerized in-house software. Sucrose preference was assessed, as described above, between 8 to 27 hr post LPS injection. Body weight and weight of the food were measured two hours before the LPS injection, and again after 24 hours, and the change in body weight and food consumption were calculated.
(§2) This particular study was conducted in several experimental cohorts, and not all compounds and all measures were studied in all cohort. However, each cohort included a vehicle-treated group; therefore, the scores in each behavioral test were converted to % of mean vehicle-treated group in every individual cohort/experiment. Statistical comparisons were computed using SPSS software and consisted of one-way analyses of variance (ANOVA), followed by post-hoc comparisons with the Student-Newman-Keuls method.

LPS-injected mice [2] = experiment: Open field test in the LPS-induced model of depression; settings: for distance travelled in the open field compared with vehicle-treated groups: Example 9, 4-6 months-old male C57BL/6, i.p. 1 h before LPS 330 µg/kg, mg/kg: CBD 30, CBDA 1 or 5, CBD 30 plus THC 10, CBD 30 plus BCP 50
Excerpt: as §1
as §2, with “method. […]” for “method.”

hippocampal microglia = experiment: Hippocampal microglia density and morphology (Iba-1 immunohistochemistry) in LPS-injected mice
Experimental: Given the suppressive effect of CBD on hippocampal microglia numbers in LPS-injected mice, the effect of Cannabidiolic acid (CBDA), as well as a combination of CBD with the flavonoid kaempferol, was examined to determine if they also produce a similar effect. Mice were firstly injected (i.p.) with CBDA or CBD/kaempferol combination, and 1 hr later were injected with LPS ([…] in 10 ml/kg saline). Brains were removed 24 hr later and prepared for immunohistochemistry, using the microglia marker Iba-1.

LPS-injected mice [3] = experiment: Sucrose preference test in the LPS-induced model of depression
[4] = adult (6-9 months-old) male mice, acute CBD
[5] = adult and young adult female mice, acute CBD, saline or LPS
[6] = young adult (2.5-3 months old) male mice, acute CBD
[7] = young-adult male mice, CBD 30 mg/kg i.p. 3 consecutive days
[8] = Example 18, celecoxib 10, 20, 30 mg/kg or CBD 30 mg/kg by themselves
[9] = young-adult female mice, CBDA 0.5, 1, 5 mg/kg
[10] = young-adult male mice, CBDA 1, 5 mg/kg, CBD 25 and CBDA 1 mg/kg
[11] = young-adult female mice, CBDA 1 mg/kg (not 0.5 or 5)
[12] = young-adult male mice, CBDA 1 mg/kg
[13] = young-adult male mice, CBDA 1 mg/kg (not 5)

C=C(C)[C@@H]1CCC(C)=C[C@H]1c1c(O)cc(CCCCC)cc1O [CBD, cannabidiol]
food consumption over 24 hr vs vehicle-treated group (LPS-injected mice [1]; Example 9, male C57BL/6, i.p. 1 h before LPS 330 µg/kg, mg/kg: CBD 30, CBD 30 plus THC 10, cannabinol 10, CBD 30 plus BCP 50): consumed significantly more food | LPS-induced body weight loss and decrease in food consumption (LPS-injected mice [1]; [4]): not influenced by CBD administration | food consumption and body weight (LPS-injected mice [1]; [5]): None of these parameters was influenced by treatment with CBD | food consumption among the LPS-injected groups (LPS-injected mice [1]; adult female mice, acute CBD (#p<0.05)): significant difference between the CBD- and vehicle-treated group | LPS-induced decreases in body weight and food consumption (LPS-injected mice [1]; [6]): None of these parameters was influenced by treatment with CBD | LPS-induced body-weight loss (LPS-injected mice [1]; [7]): no effects | distance travelled in the open field compared with vehicle-treated groups (LPS-injected mice [2]): significantly increased distance travelled | distance travelled in open field vs vehicle-LPS group (LPS-injected mice [2]; Example 18, 7 months-old male mice, 3 daily i.p. injections, LPS 250 µg/kg, CLX 10 and 20 mg/kg or CBD 30 mg/kg by themselves): did not have significant effects | number of entries into the center area vs vehicle-LPS group (LPS-injected mice [2]; Example 18, CBD 30 mg/kg by itself): no significant effects | distance moved in the center of the open field vs vehicle-LPS group (LPS-injected mice [2]; [8]): no significant effects | distance travelled in the open field test (LPS-injected mice [2]; adult (6-9 months-old) and young adult (2.5-3 months old) female mice, acute CBD, saline or LPS): None of these parameters was influenced by treatment with CBD | distance traveled in the open field test, LPS-injected groups (LPS-injected mice [2]; adult (6-9 months-old) male mice, acute CBD 30 mg/kg): significantly attenuated the suppressive effect of LPS | LPS-induced decrease in distance moved in the open field test (LPS-injected mice [2]; [6]): None of these parameters was influenced by treatment with CBD | attenuation of LPS effect on distance travelled in the open field test (LPS-injected mice [2]; young-adult male mice, CBD 30 mg/kg i.p. 3 consecutive days, last 1 hr before LPS 330 µg/kg): did not reach statistical significance | hippocampal microglia density, CBD- vs Veh-treated LPS mice (hippocampal microglia; [7]): significantly reduced | sucrose preference vs vehicle-LPS group (LPS-injected mice [3]; [8]): no significant effects | sucrose consumption, LPS-injected groups (LPS-injected mice [3]; [4]): significant difference between the CBD- and vehicle-treated group | sucrose preference (LPS-injected mice [3]; [4]): reduction in the negative effect of LPS on sucrose preference | sucrose preference and sucrose consumption (LPS-injected mice [3]; [5]): None of these parameters was influenced by treatment with CBD | sucrose preference compared with the saline-injected control group (LPS-injected mice [3]; adult female mice, LPS, CBD 30 mg/kg, CBD 30 mg plus kaempferol 60 mg): significantly reduced sucrose preference | LPS-induced decreases in sucrose preference and sucrose consumption (LPS-injected mice [3]; [6]): None of these parameters was influenced by treatment with CBD | sucrose consumption, main effect of CBD (LPS-injected mice [3]; young-adult female mice, acute CBD, difference among saline-injected mice): significantly reduced | LPS-induced reduction in sucrose consumption (LPS-injected mice [3]; [7]): no effect | LPS-induced suppression of sucrose preference (LPS-injected mice [3]; [7]): completely reversed

C=C(C)[C@@H]1CCC(C)=C[C@H]1c1c(O)cc(CCCCC)c(C(=O)O)c1O [CBDA, Cannabidiolic acid]
food consumption vs Vehicle-treated LPS-injected mice (LPS-injected mice [1]; young-adult female mice, CBDA 1 mg/kg): significantly increased | body weight reduction (LPS-injected mice [1]; [9]): no significant difference | body weight reduction and food consumption (LPS-injected mice [1]; [10]): no significant differences | distance travelled in the open field compared with vehicle-treated groups (LPS-injected mice [2]): significantly increased distance travelled | open field distance vs Vehicle-treated LPS-injected mice (LPS-injected mice [2]; young-adult female mice, CBDA 5 mg/kg (not 0.5 or 1)): significantly increased | hippocampal microglia density vs Vehicle (hippocampal microglia; [11]): significantly reduced | number of branch points of microglia processes vs Vehicle (hippocampal microglia; young-adult female mice, CBDA 5 mg/kg): significantly increased | microglia soma area and processes length (hippocampal microglia; [9]): no significant difference | number of branch points of microglia processes vs Vehicle (hippocampal microglia; [12]): significantly increased | hippocampal microglia density vs Vehicle (hippocampal microglia; [13]): significantly reduced | microglia soma area and processes length (hippocampal microglia; [10]): no significant difference | sucrose consumption vs Vehicle-treated LPS-injected mice (LPS-injected mice [3]; [11]): significantly increased | sucrose preference vs Vehicle-treated LPS-injected mice (LPS-injected mice [3]; young-adult female mice, CBDA 1 mg/kg (not 0.5 or 5) i.p. 1 hr before LPS 330 µg/kg): significantly increased | sucrose consumption vs Vehicle-treated LPS-injected mice (LPS-injected mice [3]; [12]): significantly increased | sucrose preference vs Vehicle-treated LPS-injected mice (LPS-injected mice [3]; [13]): significantly increased | sucrose consumption vs Vehicle-treated LPS-injected mice (LPS-injected mice [3]; young-adult male mice, CBDA 5 mg/kg, CBD 25 mg/kg and CBDA 1 mg/kg): significant increase

O=c1c(O)c(-c2ccc(O)cc2)oc2cc(O)cc(O)c12 [kaempferol]
open-field activity compared with the Veh-treated LPS group (LPS-injected mice [2]; adult female mice, kaempferol 60 mg/kg by itself or together with CBD 30 mg/kg): significant elevation in open-field activity
